This experiment concerns the target T1, human F508del CFTR (Homo sapiens, UniProt P13569, DEL508-508).
T1 construct: expressed in transfected cells; host or cells: Fisher Rat Thyroid (FRT) cells
Kind of experiment: CFTR-YFP High Throughput Assay. In kind it is cell-based. The conditions noted are these: FRT cells expressing human F508del CFTR and YFP; for Emax: EMax normalized to the positive control, read-out: % Efficacy. The method in brief:
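Corrector mode: 24-26 h compound exposure (2 nM-40 μM, 37° C) of FRT cells carrying human F508del CFTR and YFP-H148Q/I152L, followed by washing and 60-120 min RT stimulation with 20 μM forskolin and 30 μM P3. CFTR activity is the least-squares-fitted rate of YFP quenching (Ex 500/Em 540 nm) after iodide addition.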

SMILES strings stand for the structures.

What is called EC50 is the concentration needed to bring the measured effect to its halfway point.

T1 sequence (P13569 with tags, fused parts or gaps DEL508-508): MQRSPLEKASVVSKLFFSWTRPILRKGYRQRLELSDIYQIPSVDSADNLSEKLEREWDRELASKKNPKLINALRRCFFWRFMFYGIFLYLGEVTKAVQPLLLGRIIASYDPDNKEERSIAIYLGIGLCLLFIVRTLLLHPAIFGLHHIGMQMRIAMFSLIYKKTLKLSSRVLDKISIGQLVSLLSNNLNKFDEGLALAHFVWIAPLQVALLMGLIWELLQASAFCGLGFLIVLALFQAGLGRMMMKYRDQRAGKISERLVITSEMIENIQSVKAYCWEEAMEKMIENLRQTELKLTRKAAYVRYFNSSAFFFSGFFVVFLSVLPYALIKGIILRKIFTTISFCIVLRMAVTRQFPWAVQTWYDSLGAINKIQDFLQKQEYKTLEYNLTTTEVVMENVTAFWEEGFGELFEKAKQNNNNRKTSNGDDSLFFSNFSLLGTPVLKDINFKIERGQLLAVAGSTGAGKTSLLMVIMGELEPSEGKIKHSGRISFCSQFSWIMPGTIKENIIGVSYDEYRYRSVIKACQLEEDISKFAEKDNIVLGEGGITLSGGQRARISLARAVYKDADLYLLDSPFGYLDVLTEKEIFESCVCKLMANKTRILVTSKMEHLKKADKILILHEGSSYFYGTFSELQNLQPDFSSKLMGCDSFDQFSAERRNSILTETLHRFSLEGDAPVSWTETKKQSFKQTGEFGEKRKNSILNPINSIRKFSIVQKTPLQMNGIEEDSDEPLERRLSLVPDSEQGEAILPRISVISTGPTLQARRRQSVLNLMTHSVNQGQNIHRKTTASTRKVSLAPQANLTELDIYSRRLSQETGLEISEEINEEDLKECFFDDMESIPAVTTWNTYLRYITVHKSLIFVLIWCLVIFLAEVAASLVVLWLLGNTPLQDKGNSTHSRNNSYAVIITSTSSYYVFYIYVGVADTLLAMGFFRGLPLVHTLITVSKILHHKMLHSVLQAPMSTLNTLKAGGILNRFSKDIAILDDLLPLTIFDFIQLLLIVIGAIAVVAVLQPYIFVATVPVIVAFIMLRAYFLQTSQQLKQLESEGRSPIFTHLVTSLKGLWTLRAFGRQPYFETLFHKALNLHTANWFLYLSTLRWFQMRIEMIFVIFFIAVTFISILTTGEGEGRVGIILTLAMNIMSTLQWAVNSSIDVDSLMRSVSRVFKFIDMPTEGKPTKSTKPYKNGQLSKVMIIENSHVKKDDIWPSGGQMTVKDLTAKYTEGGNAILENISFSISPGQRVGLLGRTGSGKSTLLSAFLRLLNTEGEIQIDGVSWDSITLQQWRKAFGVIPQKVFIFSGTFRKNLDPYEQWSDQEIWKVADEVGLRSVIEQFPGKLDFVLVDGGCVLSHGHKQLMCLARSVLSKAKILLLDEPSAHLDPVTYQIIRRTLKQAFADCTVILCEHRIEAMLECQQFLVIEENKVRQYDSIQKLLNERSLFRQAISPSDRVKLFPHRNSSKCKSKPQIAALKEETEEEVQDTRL

Turning to `COc1ccc2c(-c3ccc(S(N)(=O)=O)cc3)nn(CC(=O)N(C)c3ccc4c(c3)OC(F)(F)O4)c(=O)c2c1` [Example 71, N-(2,2-difluorobenzo[d][1,3]dioxol-5-yl)-2-(7-methoxy-1-oxo-4-(4-sulfamoylphenyl)phthalazin-2(1H)-yl)-N-methylacetamide], the Emax lay in the range of 30 to 80%.
Still for that read-out and setting: the figure for `CCc1ccc(N(CC)C(=O)Cn2nc(-c3cccc4ncccc34)c3ccccc3c2=O)cc1` [Example 5, N-ethyl-N-(4-ethylphenyl)-2-(1-oxo-4-(quinolin-5-yl)phthalazin-2(1H)-yl)acetamide] is 30 to 80%; for `CCN(C(=O)c1nn(-c2ccc(C)cc2)c(=O)c2c1c1ccccc1n2C(C)C)c1ccccc1` [Example 225, N-ethyl-5-isopropyl-4-oxo-N-phenyl-3-(p-tolyl)-4,5-dihydro-3H-pyridazino[4,5-b]indole-1-carboxamide] it is 30 to 80%.
As for `CCc1ccc(N(CC)C(=O)Cn2nc(-c3cccc(O)c3)c3ccccc3c2=O)cc1` [Example 9, N-ethyl-N-(4-ethylphenyl)-2-(4-(3-hydroxyphenyl)-1-oxophthalazin-2(1H)-yl)acetamide], the Emax is 10 to 30% and the EC50 is less than 10 µM.
Consider `COc1ccc2c(-c3cccc(F)c3)nn(CC(=O)C3(c4ccc5c(c4)OC(F)(F)O5)CC3)c(=O)c2c1` [Example 250, 2-(2-(1-(2,2-difluorobenzo[d][1,3]dioxol-5-yl)cyclopropyl)-2-oxoethyl)-4-(3-fluorophenyl)-7-methoxyphthalazin-1(2H)-one], for which the Emax was in the range of 30 to 80% and the half-maximal effective concentration (EC50) was less than 10 µM.
As for `CCN(C(=O)c1nn(-c2ccc(OC)cc2)c(=O)c2c1c1ccccc1n2C)c1ccccc1` [Example 179, N-ethyl-3-(4-methoxyphenyl)-5-methyl-4-oxo-N-phenyl-4,5-dihydro-3H-pyridazino[4,5-b]indole-1-carboxamide], the Emax is 30 to 80% and the half-maximal effective concentration (EC50) is more than 20 µM.
For `CCN(C(=O)Cn1nc(C(=O)Nc2cc(Cl)ccc2C(=O)O)c2ccccc2c1=O)c1ccc2c(c1)OC(F)(F)O2` [Example 125], the Emax lay within 30 to 80%.
On to `Cc1nc2ccc(N(C)C(=O)Cn3nc(-c4cccc(C#N)c4)c4ccc(OC5CCCCC5)cc4c3=O)cc2o1` [Example 115, 2-(4-(3-cyanophenyl)-7-(cyclohexyloxy)-1-oxophthalazin-2(1H)-yl)-N-methyl-N-(2-methylbenzo[d]oxazol-6-yl)acetamide], for which the Emax is more than 80% and the EC50 is less than 10 µM.
On to `CCc1ccc(N(CC)C(=O)Cn2nc(C(=O)N(CC)c3cccc(Cl)c3)c3c4ccccc4n(C)c3c2=O)cc1` [Example 203, N-(3-chlorophenyl)-N-ethyl-3-(2-(ethyl(4-ethylphenyl)amino)-2-oxoethyl)-5-methyl-4-oxo-4,5-dihydro-3H-pyridazino[4,5-b]indole-1-carboxamide], for which the Emax was in the range of 30 to 80%.
Take `CCc1ccc(N(CC)C(=O)Cn2nc(-c3ccc(C(=O)O)cc3)c3ccccc3c2=O)cc1` [Example 14, 4-(3-(2-(ethyl(4-ethylphenyl)amino)-2-oxoethyl)-4-oxo-3,4-dihydrophthalazin-1-yl)benzoic acid]: the Emax fell in the range of 30 to 80% and the EC50 is more than 20 µM.
In the same order, the values of `CCOc1ccc(N(CC)C(=O)c2nn(C(C)C)c(=O)c3c2c2ccccc2n3C)cc1` [Example 210, N-(4-ethoxyphenyl)-N-ethyl-3-isopropyl-5-methyl-4-oxo-4,5-dihydro-3H-pyridazino[4,5-b]indole-1-carboxamide] are 30 to 80% and less than 10 µM.
With `COc1ccc2c(-c3cccc(Cl)c3)nn(CC(=O)C3(c4ccc5c(c4)OC(F)(F)O5)CC3)c(=O)c2c1` [Example 249, 4-(3-chlorophenyl)-2-(2-(1-(2,2-difluorobenzo[d][1,3]dioxol-5-yl)cyclopropyl)-2-oxoethyl)-7-methoxyphthalazin-1(2H)-one], the Emax is more than 80% and the EC50 was less than 10 µM.
As to `CCc1ccc(N(CC)C(=O)Cn2nc(-c3ccc(C(N)=O)cc3)c3ccccc3c2=O)cc1` [Example 12, 4-(3-(2-(ethyl(4-ethylphenyl)amino)-2-oxoethyl)-4-oxo-3,4-dihydrophthalazin-1-yl)benzamide], the Emax fell in the range of 30 to 80% and the EC50 is more than 20 µM.
In the case of `Cc1ccc(-n2nc(C(=O)N(c3ccccc3)C(C)C)c3c(-c4ccccc4)onc3c2=O)cc1` [Example 248, N-isopropyl-7-oxo-N,3-diphenyl-6-(p-tolyl)-6,7-dihydroisoxazolo[3,4-d]pyridazine-4-carboxamide], the Emax lay within 10 to 30% and the EC50 was less than 10 µM.
Consider `CCc1ccc(N(CC)C(=O)Cn2nc(Cc3cccnc3)c3ccc(Cl)cc3c2=O)cc1` [Example 39, 2-(7-chloro-1-oxo-4-(pyridin-3-ylmethyl)phthalazin-2(1H)-yl)-N-ethyl-N-(4-ethylphenyl)acetamide], for which the Emax fell in the range of 30 to 80% and the half-maximal effective concentration (EC50) was more than 20 µM.
In the same order, the values of `Cn1c2ccccc2c2c(-c3cccc(C#N)c3)nn(C3CCCCC3)c(=O)c21` [Example 244, 3-(3-cyclohexyl-5-methyl-4-oxo-4,5-dihydro-3H-pyridazino[4,5-b]indol-1-yl)benzonitrile] are 30 to 80% and less than 10 µM.
Turning to `Cc1ccc(-n2nc(C(=O)N3CCCc4ccccc43)c3c4ccccc4n(C)c3c2=O)cc1` [Example 159, 5-methyl-1-(1,2,3,4-tetrahydroquinoline-1-carbonyl)-3-(p-tolyl)-3H-pyridazino[4,5-b]indol-4(5H)-one], the Emax lay within 30 to 80%.
As for `CCN(C(=O)Cn1ncc2c(c1=O)c1ccccc1n2Cc1cccc(C#N)c1)c1ccc2c(c1)OC(F)(F)O2` [Example 142, 2-(5-(3-cyanobenzyl)-1-oxo-1H-pyridazino[4,5-b]indol-2(5H)-yl)-N-(2,2-difluorobenzo[d][1,3]dioxol-5-yl)-N-ethylacetamide], the Emax is 30 to 80%.
As for `CCN(C(=O)Cn1nc(Cc2cccnc2)c2c(OC3CCCCC3)cccc2c1=O)c1ccc2c(c1)OC(F)(F)O2` [Example 60, 2-(5-(cyclohexyloxy)-1-oxo-4-(pyridin-3-ylmethyl)phthalazin-2(1H)-yl)-N-(2,2-difluorobenzo[d][1,3]dioxol-5-yl)-N-ethylacetamide], the Emax is 30 to 80%.
Turning to `CCN(C(=O)c1nn(-c2ccccc2)c(=O)c2c1c1ccccc1n2C)c1cccc(Cl)c1` [Example 181, N-(3-chlorophenyl)-N-ethyl-5-methyl-4-oxo-3-phenyl-4,5-dihydro-3H-pyridazino[4,5-b]indole-1-carboxamide], the Emax lay in the range of 30 to 80%.
For `CCN(C(=O)Cn1nc(Cc2cccnc2)c2c3ccccc3n(C)c2c1=O)c1ccc2c(c1)OC(F)(F)O2` [Example 238, N-(2,2-difluorobenzo[d][1, 3]dioxol-5-yl)-N-ethyl-2-(5-methyl-4-oxo-1-(pyridin-3-ylmethyl)-4,5-dihydro-3H-pyridazino[4,5-b]indol-3-yl)acetamide], the Emax is 30 to 80% and the EC50 was less than 10 µM.
On to `Cc1ccc(-n2nc(Cn3ccnc3)c3c4ccccc4n(C)c3c2=O)cc1` [Example 242, 1-((1H-imidazol-1-yl)methyl)-5-methyl-3-(p-tolyl)-3,5-dihydro-4H-pyridazino[4,5-b]indol-4-one], for which the Emax was 30 to 80% and the EC50 is more than 20 µM.
Consider `CCN(C(=O)c1nn(-c2ccc(C)cc2)c(=O)c2c1c1ccccc1n2C)c1ccccn1` [Example 156, N-ethyl-5-methyl-4-oxo-N-(pyridin-2-yl)-3-(p-tolyl)-4,5-dihydro-3H-pyridazino[4,5-b]indole-1-carboxamide], for which the Emax is 30 to 80%.
In the case of `COc1ccc2c(-c3ccc(S(N)(=O)=O)cc3)nn(CC(=O)N(c3ccc4c(c3)OC(F)(F)O4)C(C)C)c(=O)c2c1` [Example 76, N-(2,2-difluorobenzo[d][1,3]dioxol-5-yl)-N-isopropyl-2-(7-methoxy-1-oxo-4-(4-sulfamoylphenyl)phthalazin-2(1H)-yl)acetamide], the Emax was more than 80%.
As for `CCc1ccc(N(CC)C(=O)Cn2nc(-c3cccc4c3OCO4)c3ccccc3c2=O)cc1` [Example 10, 2-(4-(benzo[d][1,3]dioxol-4-yl)-1-oxophthalazin-2(1H)-yl)-N-ethyl-N-(4-ethylphenyl)acetamide], the Emax lay in the range of 10 to 30% and the EC50 was more than 20 µM.
As for `CCN(C(=O)Cn1ncc2c(c1=O)c1ccccc1n2Cc1ccncc1)c1ccc2c(c1)OC(F)(F)O2` [Example 143, N-(2,2-difluorobenzo[d][1,3]dioxol-5-yl)-N-ethyl-2-(1-oxo-5-(pyridin-4-ylmethyl)-1H-pyridazino[4,5-b]indol-2(5H)-yl)acetamide], the Emax was 30 to 80%.
In the case of `CCN(C(=O)c1nn(-c2ccc(C)cc2)c(=O)c2c1c1cccc(OC)c1n2C)c1ccccc1` [Example 189, N-ethyl-6-methoxy-5-methyl-4-oxo-N-phenyl-3-(p-tolyl)-4,5-dihydro-3H-pyridazino[4,5-b]indole-1-carboxamide], the Emax lay in the range of 30 to 80% and the EC50 was more than 20 µM.
On to `CCN(C(=O)Cn1nc(Cc2cccnc2)c2cccc(OC)c2c1=O)c1ccc2c(c1)OC(F)(F)O2` [Example 55, N-(2,2-difluorobenzo[d][1,3]dioxol-5-yl)-N-ethyl-2-(8-methoxy-1-oxo-4-(pyridin-3-ylmethyl)phthalazin-2(1H)-yl)acetamide], for which the Emax is 30 to 80%.
For `COc1cc2c(=O)n(CC(=O)N(C)c3ccc4c(c3)OC(F)(F)O4)nc(-c3cccc(C#N)c3)c2cc1Cl` [Example 96, 2-(6-chloro-4-(3-cyanophenyl)-7-methoxy-1-oxophthalazin-2(1H)-yl)-N-(2,2-difluorobenzo[d][1,3]dioxol-5-yl)-N-methylacetamide], the Emax is more than 80% and the concentration giving a half-maximal response (EC50) was less than 10 µM.

(Values after patent publication US10370366B2 (Flatley Discovery Lab, LLC, priority 2013, dated 2019).)
